Results as given in patent publication US20220251054A1, “Analogues and Methods of Treating Rett Syndrome” (The Regents of the University of California, priority 2019, published 2022).
“Also recorded” adds a separate entry of the source.

Tests used:
Cx+GE organoids = test: Live organoid calcium imaging (GCaMP6f) with GABAA receptor antagonist; format: cell-based, human; details: for synchronization of calcium transients / neural activities: Cx+GE organoids, bicuculline methiodide 100 μM or gabazine 25 μM
Cx+Cx organoids = test: as above; format: cell-based, human; details: for synchronization of calcium transients / neural activities: Cx+Cx organoids, bicuculline methiodide 100 μM or gabazine 25 μM
Mut Cx+GE organoids = test: Extracellular recording of local field potentials (LFP) in Rett syndrome fusion organoids; format: cell-based, human; details: for high frequency oscillations (HFOs, about 200-500 Hz) / lower frequency / gamma oscillations (about 40-80 Hz) / spiking activity / spike frequency: Mut Cx+GE organoids treated 48-hr; for high frequency oscillations (HFOs, about 200-500 Hz) / lower frequency / gamma oscillations (about 40-80 Hz): 2 mM VPA or 10 μM Pifithrin-α; for spiking activity / spike frequency: 2 mM sodium valproate (VPA) or 10 μM Pifithrin-α
[1] = system: MECP2− (Mutant) interneurons; test: P21 protein immunofluorescence (senescence marker) in treated neurons; format: cell-based; details: 10 μM, 48 hours, WT and Mutant interneurons
Mutant IPSCs = format: cell-based; details: 10 μM, 48 hours
P53 = P53 (Homo sapiens, UniProt P04637); details: cited from earlier work
Sequence of P53 (P04637 whole entry): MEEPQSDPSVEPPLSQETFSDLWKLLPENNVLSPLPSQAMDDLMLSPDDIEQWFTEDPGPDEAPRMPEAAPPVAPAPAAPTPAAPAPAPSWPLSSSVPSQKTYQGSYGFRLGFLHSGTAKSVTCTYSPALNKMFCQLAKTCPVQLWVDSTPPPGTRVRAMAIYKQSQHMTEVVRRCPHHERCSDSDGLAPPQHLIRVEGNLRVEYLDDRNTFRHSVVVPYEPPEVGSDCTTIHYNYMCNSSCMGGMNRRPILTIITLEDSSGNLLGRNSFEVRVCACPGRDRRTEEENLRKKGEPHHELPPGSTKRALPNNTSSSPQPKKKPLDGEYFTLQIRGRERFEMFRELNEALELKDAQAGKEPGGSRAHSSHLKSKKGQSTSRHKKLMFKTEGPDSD

Row | SMILES | synchronization of calcium transients / neural activities (Cx+GE organoids) | synchronization of calcium transients / neural activities (Cx+Cx organoids) | high frequency oscillations (HFOs, about 200-500 Hz) (Mut Cx+GE organoids) | lower frequency / gamma oscillations (about 40-80 Hz) (Mut Cx+GE organoids) | spiking activity / spike frequency (Mut Cx+GE organoids) | increased levels of P53 target genes (RT-PCR) (Mutant IPSCs) | other results
1 | COc1ccc(-c2ccc(=N)n(CCCC(=O)O)n2)cc1 [Gabazine] | epochs of nearly complete synchronization of calcium transients | no such effect |  |  |  |  | 
2 | Cc1ccc(C(=O)Cn2c3c(sc2=N)CCCC3)cc1 [Pifithrin α, 2-(2-imino-4,5,6,7-tetrahydrobenzo[d]thiazol-3(2H)-yl)-1-(p-tolyl)ethan-1-one hydrogen bromide] |  |  | suppressed HFOs | re-emergence of gamma oscillations | similarly reduced spike frequency | abrogated | oscillatory activity (extracellular recording) (Mut Cx+GE organoids; Mut Cx+GE organoids (RTT) exposed to 10 μM for 48 hours, Day 100): reveal oscillatory activity at multiple frequencies; sustained oscillatory activity (PSD) (Mut Cx+GE organoids; Mut Cx+GE organoids exposed to 100 μM for 48 hours, Day 100): shows rescue of sustained oscillatory activity; cell senescence (P21 protein level by immunofluorescence) [1]: block cell senescence due to increased p53 activity; P53 inhibition (P53): effective P53 inhibitor
3 | Cc1ccc(-c2cn3c4c(sc3n2)CCCC4)cc1 [Pifithrin β, 2-(p-tolyl)-5,6,7,8-tetrahydroben-zo[d]imidazo[2,1-b]thiazole] |  |  |  |  |  | abrogated | 
4 | CC(=O)/N=c1\sc2c(n1CC(=O)c1ccc(C)cc1)CCCC2 [Pifithrin α-Ac, N-(3-(2-oxo-2-(p-tolyl)ethyl)-4,5,6,7-tetrahydrobenzo[d]thiazol-2(3H)-ylidene)aceta-mide] |  |  |  |  |  | abrogated | 
5 | C[N+]1(C)CCc2cc3c(cc2[C@H]1[C@@H]1OC(=O)c2c1ccc1c2OCO1)OCO3.[I-] [BMI, bicuculline methiodide] | spontaneous synchronization of neural activities; also recorded: epochs of nearly complete synchronization of calcium transients | minimal effect; also recorded: no such effect |  |  |  |  | hierarchical clustering: groups of neurons with correlated activity (Cx+GE organoids; Cx+GE organoids following BMI treatment): large groups of neurons with highly correlated activity; hierarchical clustering: groups of neurons with correlated activity (Cx+Cx organoids; Cx+Cx organoids following BMI treatment): only small groups
6 | CCCC(CCC)C(=O)[O-].[Na+] [VPA, sodium valproate] |  |  | neither decreased HFOs | nor restored lower frequency oscillations | significantly reduced spiking activity |  | 
